This note sets out measurements from ChEMBL document CHEMBL4219222, “A new class of pyrazolo[5,1-c][1,2,4]triazines as γ-aminobutyric type A (GABAA) receptor subtype ligand: synthesis and pharmacological evaluation” (Bioorg Med Chem, 2018).

In general, Ki refers to the equilibrium dissociation constant of an inhibitor or competing ligand from its target. As usually defined, the inhibition is the relative decrease from the control value, in per cent.

Assay [1] in a line: Displacement of [3H]Ro15-1788 from GABAA receptor in bovine cerebral cortex membranes after 90 mins by liquid scintillation counting method. The class given is cell membranes, Bos taurus, Membrane.
Assay [2] is filed under the species Bos taurus. The experiment in a line: Displacement of [3H]Ro15-1788 from GABAA receptor in bovine cerebral cortex membranes at 10 uM after 90 mins by liquid scintillation counting method relative to control. The settings on record: Membrane. The format is cell membranes.
A short description of assay [3]: Displacement of [3H]Ro15-1788 from recombinant rat GABAAalpha2/beta2/gamma2 receptor after 90 mins by liquid scintillation counting method. For orientation: Loss of bound radioactivity is the signal in a displacement assay; it reports binding, not function.
Assay [4] in a line: Displacement of [3H]Ro15-1788 from recombinant rat GABAAalpha3/beta2/gamma2 receptor after 90 mins by liquid scintillation counting method.
In assay [5] the target is GABA-A receptor; alpha-1/beta-2/gamma-2 (Rattus norvegicus, UniProt P18508+P62813+P63138). Nature of the assay: Displacement of [3H]Ro15-1788 from recombinant rat GABAAalpha1/beta2/gamma2 receptor after 90 mins by liquid scintillation counting method. The format is protein-complex assay.
GABA-A receptor; alpha-1/beta-2/gamma-2, sequence (P18508 whole entry): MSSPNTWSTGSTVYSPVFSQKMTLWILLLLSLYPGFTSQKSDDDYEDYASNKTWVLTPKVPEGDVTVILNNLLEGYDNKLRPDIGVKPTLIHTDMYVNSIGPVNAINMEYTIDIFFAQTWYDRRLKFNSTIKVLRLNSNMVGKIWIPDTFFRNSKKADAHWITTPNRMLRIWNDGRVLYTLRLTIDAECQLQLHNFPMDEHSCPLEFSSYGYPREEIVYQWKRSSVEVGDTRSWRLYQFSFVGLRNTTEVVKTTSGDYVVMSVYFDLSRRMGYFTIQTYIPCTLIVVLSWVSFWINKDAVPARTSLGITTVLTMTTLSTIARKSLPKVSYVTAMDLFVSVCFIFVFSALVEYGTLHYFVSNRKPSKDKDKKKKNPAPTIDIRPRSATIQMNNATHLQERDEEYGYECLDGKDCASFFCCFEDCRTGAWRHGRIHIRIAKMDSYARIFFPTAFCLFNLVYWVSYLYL
GABA-A receptor; alpha-1/beta-2/gamma-2, sequence (P62813 whole entry): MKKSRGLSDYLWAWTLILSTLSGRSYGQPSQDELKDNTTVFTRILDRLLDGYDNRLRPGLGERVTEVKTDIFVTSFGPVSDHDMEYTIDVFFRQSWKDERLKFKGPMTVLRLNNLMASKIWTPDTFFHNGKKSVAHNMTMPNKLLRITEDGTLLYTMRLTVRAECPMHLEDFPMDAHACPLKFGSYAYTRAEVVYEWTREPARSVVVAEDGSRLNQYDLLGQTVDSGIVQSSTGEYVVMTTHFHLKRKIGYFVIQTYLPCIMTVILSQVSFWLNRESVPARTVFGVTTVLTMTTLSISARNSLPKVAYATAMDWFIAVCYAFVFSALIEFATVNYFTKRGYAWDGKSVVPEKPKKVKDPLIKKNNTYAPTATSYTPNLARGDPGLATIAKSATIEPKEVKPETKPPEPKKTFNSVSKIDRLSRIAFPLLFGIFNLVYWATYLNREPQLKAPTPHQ
GABA-A receptor; alpha-1/beta-2/gamma-2, sequence (P63138 whole entry): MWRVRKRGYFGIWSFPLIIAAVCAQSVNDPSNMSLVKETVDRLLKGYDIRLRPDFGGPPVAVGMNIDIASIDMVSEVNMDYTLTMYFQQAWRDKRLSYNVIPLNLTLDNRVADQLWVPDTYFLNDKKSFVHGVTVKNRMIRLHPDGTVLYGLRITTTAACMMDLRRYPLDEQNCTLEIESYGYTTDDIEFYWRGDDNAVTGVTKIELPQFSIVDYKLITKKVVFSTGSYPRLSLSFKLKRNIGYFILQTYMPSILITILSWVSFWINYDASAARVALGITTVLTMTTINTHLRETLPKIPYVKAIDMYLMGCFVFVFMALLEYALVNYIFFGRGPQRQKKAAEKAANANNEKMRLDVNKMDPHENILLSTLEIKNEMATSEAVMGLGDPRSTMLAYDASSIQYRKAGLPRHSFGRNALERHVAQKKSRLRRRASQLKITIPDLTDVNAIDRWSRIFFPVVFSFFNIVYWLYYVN
In assay [6] the target is GABA A receptor alpha-5/beta-3/gamma-2 (Rattus norvegicus, UniProt P18508+P19969+P63079). Nature of the assay: Displacement of [3H]Ro15-1788 from recombinant rat GABAAalpha5/beta3/gamma2 receptor after 90 mins by liquid scintillation counting method. The class given is protein-complex assay.
GABA A receptor alpha-5/beta-3/gamma-2, sequence (P18508 whole entry): as the sequence (P18508 whole entry) above
GABA A receptor alpha-5/beta-3/gamma-2, sequence (P19969 whole entry): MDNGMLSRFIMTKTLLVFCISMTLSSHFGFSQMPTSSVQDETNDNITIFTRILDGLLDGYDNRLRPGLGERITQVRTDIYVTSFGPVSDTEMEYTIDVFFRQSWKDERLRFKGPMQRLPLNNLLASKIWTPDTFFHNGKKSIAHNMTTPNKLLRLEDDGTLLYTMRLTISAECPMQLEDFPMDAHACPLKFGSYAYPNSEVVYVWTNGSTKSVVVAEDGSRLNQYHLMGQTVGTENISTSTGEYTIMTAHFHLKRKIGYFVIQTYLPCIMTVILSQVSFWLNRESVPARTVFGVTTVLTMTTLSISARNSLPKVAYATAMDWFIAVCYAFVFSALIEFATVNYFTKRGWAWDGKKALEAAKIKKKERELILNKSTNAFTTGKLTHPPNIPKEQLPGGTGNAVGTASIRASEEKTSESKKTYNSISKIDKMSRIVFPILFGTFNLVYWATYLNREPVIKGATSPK
GABA A receptor alpha-5/beta-3/gamma-2, sequence (P63079 whole entry): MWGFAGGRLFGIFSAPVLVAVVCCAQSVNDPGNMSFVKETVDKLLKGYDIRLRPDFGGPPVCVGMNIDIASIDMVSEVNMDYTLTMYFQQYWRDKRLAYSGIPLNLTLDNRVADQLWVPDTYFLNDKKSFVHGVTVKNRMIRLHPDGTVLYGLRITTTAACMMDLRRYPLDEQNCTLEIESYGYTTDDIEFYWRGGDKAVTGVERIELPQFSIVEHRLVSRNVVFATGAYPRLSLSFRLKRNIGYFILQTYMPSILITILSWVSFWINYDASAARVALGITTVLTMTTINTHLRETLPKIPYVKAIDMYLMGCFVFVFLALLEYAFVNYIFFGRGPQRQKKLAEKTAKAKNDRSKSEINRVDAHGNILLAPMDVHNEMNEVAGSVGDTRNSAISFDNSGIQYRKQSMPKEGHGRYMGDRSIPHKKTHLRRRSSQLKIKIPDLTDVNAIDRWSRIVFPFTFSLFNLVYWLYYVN
Assay [7] deals with GABA A receptor alpha-5/beta-3/gamma-2 (Rattus norvegicus) (UniProt P18508+P19969+P63079). The experiment in a line: Displacement of [3H]Ro15-1788 from recombinant rat GABAAalpha5/beta3/gamma2 receptor at 10 uM after 90 mins by liquid scintillation counting method relative to control. The class given is protein-complex assay.
For assay [8], the species on record is Rattus norvegicus. Nature of the assay: Displacement of [3H]Ro15-1788 from recombinant rat GABAAalpha2/beta2/gamma2 receptor at 10 uM after 90 mins by liquid scintillation counting method relative to control.
The species named for assay [9] is Rattus norvegicus. The experiment in a line: Selectivity ratio of Ki for recombinant rat GABAAalpha1/beta2/gamma2 receptor to Ki for recombinant rat GABAAalpha2/beta2/gamma2 receptor.
The species named for assay [10] is Rattus norvegicus. The experiment in a line: Displacement of [3H]Ro15-1788 from recombinant rat GABAAalpha3/beta2/gamma2 receptor at 10 uM after 90 mins by liquid scintillation counting method relative to control.
Assay [11] is filed under the species Rattus norvegicus. Nature of the assay: Selectivity ratio of Ki for recombinant rat GABAAalpha5/beta3/gamma2 receptor to Ki for recombinant rat GABAAalpha2/beta2/gamma2 receptor.

The compound `O=c1c(-c2cc[nH]n2)c[nH]c2c(-c3cccs3)cnn12` displayed a Ki in assay [1] of 0.533 µM.
Compound `O=c1c(-n2ccnc2)c[nH]c2c(-c3cccs3)cnn12` gave an inhibition in assay [2] of 14.7%.
On to `O=c1c(-c2cc[nH]n2)n[nH]c2c(-c3ccc(F)cc3)cnn12`, for which the Ki in assay [3] stood at 2.42 µM; in assay [4], 0.894 µM; in [1], 0.0883 µM; in assay [5] it was 0.0773 µM; in assay [6], 1.11 µM.
As for `O=c1c(-c2cc[nH]n2)n[nH]c2c(-c3cccc(C(F)(F)F)c3)cnn12`, the Ki is above 5 µM in assay [3]; 0.501 µM in assay [4]; 0.0072 µM in [1]; 0.0065 µM in assay [5]; 0.144 µM in [6].
In the case of `O=c1c(-c2cc[nH]n2)n[nH]c2c(-c3ccccn3)cnn12`, the inhibition in [7] came out at 32%. In addition, the values for the Ki in assay [3], in assay [1] and in assay [5] were 0.012 µM, 0.0105 µM and 0.0091 µM, respectively.
`O=c1c(-c2cc[nH]n2)c[nH]c2c(-c3ccc4ccccc4c3)cnn12` came in with an inhibition in assay [2] of 20%.
Still for that read-out and setting: the figure for `O=c1c(-n2cccn2)c[nH]c2c(-c3ccccc3)cnn12` is 59.5%.
Regarding `O=c1c(-c2cc[nH]n2)c[nH]c2c(-n3cccc3)cnn12`, in assay [1], the Ki is 2.67 µM.
Regarding `O=c1c(-c2cc[nH]n2)n[nH]c2c(-c3cccc(Cl)c3)cnn12`, the inhibition in [7] worked out at 40%. For the same compound, the Ki stood at 0.99 µM in assay [3], 0.66 µM in assay [4], 0.074 µM in assay [1] and 0.0656 µM in assay [5].
On to `O=c1c(-c2cc[nH]n2)n[nH]c2c(-c3cccc4ccccc34)cnn12`, for which the figures for the Ki in [1], in assay [5] and in [6] were 0.077 µM, 0.15 µM and 0.159 µM, respectively.
With `O=c1c(-c2cc[nH]n2)n[nH]c2c(-c3cccnc3)cnn12`, the Ki in assay [3] came to 5 µM; in assay [4], 0.502 µM; in [1], 0.0736 µM; in [5], 0.051 µM; in assay [6] it was 1.24 µM.
In turn, `O=c1c(-c2cc[nH]n2)c[nH]c2c(-c3cccc4ccccc34)cnn12` showed a Ki in [1] of 0.599 µM.
Same read-out and setting: the figure for `O=c1c(-c2cc[nH]n2)c[nH]c2c(-c3cccnc3)cnn12` is 0.0373 µM; for `O=c1c(-c2cc[nH]n2)c[nH]c2c(-c3cccc(Cl)c3)cnn12` it is 0.0954 µM.
As for `O=c1c(-c2cc[nH]n2)n[nH]c2c(-c3ccccc3)cnn12`, the Ki in [3] worked out at 3 µM; in assay [4], 2.09 µM; in [1], 0.329 µM; in assay [5], 0.42 µM; in assay [6], 0.408 µM.
As to `O=c1c(-n2cccn2)c[nH]c2c(-c3cccs3)cnn12`, the inhibition in assay [2] was determined as 13.9%.
Same read-out and setting: with `Cc1ccc(-c2cnn3c(=O)c(-c4cc[nH]n4)n[nH]c23)cc1` the figure was 32%.
With `O=c1c(-c2cc[nH]n2)n[nH]c2c(-c3ccc4ccccc4c3)cnn12`, the Ki in assay [1] came to 2.3 µM.
As to `O=c1c(-n2ccnc2)c[nH]c2c(-c3ccccc3)cnn12`, the inhibition in [2] is 2%.
`O=c1c(-c2cc[nH]n2)c[nH]c2c(Cc3ccccc3)cnn12` came in with a Ki in assay [1] of 0.854 µM.
Consider `O=c1c(-c2cc[nH]n2)n[nH]c2c(-c3cccc(Br)c3)cnn12`, for which the Ki in assay [4] amounted to 0.57 µM; in assay [1], 0.038 µM; in assay [5] it was 0.021 µM; in [6] it was 1.12 µM. Further, the inhibition in assay [8] is 50%.
`O=c1c(-c2cc[nH]n2)c[nH]c2c(-c3ccccc3)cnn12` displayed a Ki in assay [1] of 0.326 µM.
Turning to `O=c1c(-c2cc[nH]n2)n[nH]c2c(-c3cccs3)cnn12`, the Ratio Ki stood at 7 in [9] and 16 in [11]. Besides, the Ki in assay [3] worked out at 0.0412 µM; in [1], 0.237 µM; in assay [5], 0.285 µM; in assay [6], 0.662 µM. Further, in assay [10], the inhibition was found to be 28%.
`O=c1c(-c2cc[nH]n2)n[nH]c2c(-c3cccc(F)c3)cnn12`: the inhibition in assay [7] stood at 23%. Also, the Ki in [3] was found to be 0.632 µM; in assay [4], 1.08 µM; in assay [1] it was 0.152 µM; in assay [5] it was 0.1 µM.
In assay [1], `O=c1c(-c2cc[nH]n2)c[nH]c2c(-c3ccccn3)cnn12` showed a Ki of 0.0142 µM.
In the case of `COc1ccc(-c2cnn3c(=O)c(-c4cc[nH]n4)n[nH]c23)cc1`, in assay [1], the Ki was found to be 1.61 µM.
